Measurements taken from US12129237B2, “Substituted diaminocarboxamide and diaminocarbonitrile pyrimidines, compositions thereof, and methods of treatment therewith” (SIGNAL PHARMACEUTICALS, LLC, priority 2011, dated 2024).

Each compound was assayed against T1, JNK1 (Homo sapiens, UniProt P45983) (assay: JNK1 biochemical assays (one or more of: time resolved fluorescence, Z'-LYTE Cascade, radioactive)). Conditions: Table 2; JNK1 IC50 activity level; read-out: Act. Level.
T1 construct: purchased Carna Biosciences
T1 sequence (P45983 whole entry): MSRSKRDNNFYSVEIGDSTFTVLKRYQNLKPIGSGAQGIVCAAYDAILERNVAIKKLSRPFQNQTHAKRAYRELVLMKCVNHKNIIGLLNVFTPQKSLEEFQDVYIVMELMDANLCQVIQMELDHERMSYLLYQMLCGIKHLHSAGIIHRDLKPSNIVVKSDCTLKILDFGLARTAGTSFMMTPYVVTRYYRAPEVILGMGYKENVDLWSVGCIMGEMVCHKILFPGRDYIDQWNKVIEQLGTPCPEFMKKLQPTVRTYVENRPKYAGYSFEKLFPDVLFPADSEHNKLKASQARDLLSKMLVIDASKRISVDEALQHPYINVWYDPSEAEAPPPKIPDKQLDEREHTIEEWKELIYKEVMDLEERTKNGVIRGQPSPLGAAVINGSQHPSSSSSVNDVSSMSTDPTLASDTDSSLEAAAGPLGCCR

SMILES | IC50 [nM]
NC(=O)c1cnc(NCc2ccco2)nc1Nc1ccccc1 [Example B-65, 2-(furan-2-ylmethylamino)-4-(phenylamino)pyrimidine-5-carboxamide] | 1000 to 10000

Same assay, conditions: Table 3; JNK1 IC50 activity level; read-out: Act. Level

SMILES | IC50 [nM]
CCO[C@H]1CC[C@H](Nc2ncc(C#N)c(N[C@@H]3CC[C@@H](C)[C@H](O)C3)n2)CC1 [Example C-41, 2-((1r,4R)-4-ethoxycyclohexylamino)-4-((1R,3R,4R)-3-hydroxy-4-methylcyclohexylamino) pyrimidine-5-carbonitrile] | < 200
N#Cc1cnc(N[C@H]2CC[C@H](O)CC2)nc1NC1CC(F)(F)C1 [Example C-58, 4-(3,3-difluorocyclobutylamino)-2-((1r,4r)-4-hydroxycyclohexylamino) pyrimidine-5-carbonitrile] | 1000 to 10000
CO[C@H]1CC[C@H](Nc2ncc(C#N)c(N[C@@H]3CCCC[C@@H](O)C3)n2)CC1 [Example C-42, 4-((1R,3R)-3-hydroxycycloheptylamino)-2-((1r,4R)-4-methoxycyclohexylamino) pyrimidine-5-carbonitrile] | < 200
CO[C@H]1CC[C@H](Nc2ncc(C#N)c(N[C@H]3CC[C@@H](O)CC3)n2)CC1 [Example C-12, 4-((1s,4s)-4-hydroxycyclohexylamino)-2-((1r,4r)-4-methoxycyclohexylamino) pyrimidine-5-carbonitrile] | 200 to 800
CO[C@H]1CC[C@H](Nc2ncc(C#N)c(N[C@@H]3CCCC[C@](C)(O)C3)n2)CC1 [Example C-50, 4-((1R,3S)-3-hydroxy-3-methylcycloheptylamino)-2-((1r,4R)-4-methoxycyclohexylamino) pyrimidine-5-carbonitrile] | 200 to 800
CCO[C@H]1CC[C@H](Nc2ncc(C#N)c(NC3CCCC3)n2)CC1 [Example C-23, 4-(cyclopentylamino)-2-((1r,4r)-4-ethoxycyclohexylamino) pyrimidine-5-carbonitrile] | 200 to 800
C[C@@H]1CC[C@@H](Nc2nc(N[C@H]3CC[C@H](OCC(F)(F)F)CC3)ncc2C#N)C[C@H]1O [Example C-49] | < 200
CN[C@H]1CC[C@H](Nc2ncc(C#N)c(N[C@@H]3CCC[C@H](O)C3)n2)CC1 [Example C-11, 4-((1R,3S)-3-hydroxycyclohexylamino)-2-((1r,4R)-4-(methylamino)cyclohexylamino) pyrimidine-5-carbonitrile] | < 200

Same assay, conditions: one or more of the JNK1 biochemical assays; read-out: Act. Level (JNK1 IC50 activity level)

SMILES | IC50 [nM]
CC(C)(C)Nc1nc(N[C@@H]2CCCC[C@@H](O)C2)ncc1C(N)=O [Example 386, 4-(tert-butylamino)-2-((1R,3R)-3-hydroxycycloheptylamino)pyrimidine-5-carboxamide] | < 200
NC(=O)c1cnc(N[C@H]2CC[C@H](O)CC2)nc1NCC1CC1 [Example 226, 4-(cyclopropylmethylamino)-2-((1r,4r)-4-hydroxycyclohexylamino)pyrimidine-5-carboxamide] | < 200
NC(=O)c1cnc(NC2CCCC(O)CC2)nc1NC1CCC1 (stereo not shown) [Example 249, 4-(cyclobutylamino)-2-(4-hydroxycycloheptylamino)pyrimidine-5-carboxamide] | < 200
CC(C)Nc1ncc(C(N)=O)c(N[C@@H]2CC[C@@H](C)[C@H](O)C2)n1 [Example 240, 4-((1R,3R,4R)-3-hydroxy-4-methylcyclohexylamino)-2-(isopropylamino)pyrimidine-5-carboxamide] | < 200
CCO[C@H]1CC[C@H](Nc2ncc(C(N)=O)c(N[C@H](CC)C3CC3)n2)CC1 [Example 375, 4-((R)-1-cyclopropylpropylamino)-2-((1r,4R)-4-ethoxycyclohexylamino)pyrimidine-5-carboxamide] | < 200
C[C@@H]1CC[C@@H](Nc2nc(N[C@H](C)C3CCC3)ncc2C(N)=O)C[C@H]1O [Example 459, 2-((R)-1-cyclobutylethylamino)-4-((1R,3R,4R)-3-hydroxy-4-methylcyclohexylamino)pyrimidine-5-carboxamide] | < 200
CC(C)(C)Nc1nc(N[C@H]2CCC[C@@H](O)C2)ncc1C(N)=O [Example 306, 4-(tert-butylamino)-2-((1S,3R)-3-hydroxycyclohexylamino)pyrimidine-5-carboxamide] | < 200
CC(C)Nc1nc(N[C@H]2CCC[C@@H](O)CC2)ncc1C(N)=O [Example 233, 2-((1S,4R)-4-hydroxycycloheptylamino)-4-(isopropylamino)pyrimidine-5-carboxamide] | < 200
CC12CC(Nc3nc(N[C@H]4CC[C@H](O)CC4)ncc3C(N)=O)(C1)C2 [Example 393, 2-((1r,4r)-4-hydroxycyclohexylamino)-4-(3-methylbicyclo[1.1.1]pentan-1-ylamino)pyrimidine-5-carboxamide] | < 200
NC(=O)c1cnc(N[C@H]2CCCOC2)nc1NC1CCC1 [Example 448, (S)-4-(cyclobutylamino)-2-(tetrahydro-2H-pyran-3-ylamino)pyrimidine-5-carboxamide] | < 200
CC(C)(Nc1nc(N[C@H]2CC[C@H](OC(F)F)CC2)ncc1C(N)=O)C1CC1 [Example 481, 4-(2-cyclopropylpropan-2-ylamino)-2-((1r,4r)-4-(difluoromethoxy)cyclohexylamino)pyrimidine-5-carboxamide] | < 200
CCO[C@H]1CC[C@H](Nc2ncc(C(N)=O)c(NC3(C)CCCCC3)n2)CC1 [Example 359, 2-((1r,4r)-4-ethoxycyclohexylamino)-4-(1-methylcyclohexylamino)pyrimidine-5-carboxamide] | < 200
CC(C)(Nc1nc(N[C@H]2CC[C@H](OC3CC3)CC2)ncc1C(N)=O)C1CC1 [Example 483, 2-((1r,4r)-4-cyclopropoxycyclohexylamino)-4-(2-cyclopropylpropan-2-ylamino)pyrimidine-5-carboxamide] | < 200
CC1(Nc2ncc(C(N)=O)c(N[C@@H]3CCCC[C@H](O)C3)n2)CCC1 [Example 352, 4-((1R,3S)-3-hydroxycycloheptylamino)-2-(1-methylcyclobutylamino)pyrimidine-5-carboxamide] | < 200
CCO[C@H]1CC[C@H](Nc2ncc(C(N)=O)c(NC(C)(C)CO)n2)CC1 [Example 309, 2-((1r,4r)-4-ethoxycyclohexylamino)-4-(1-hydroxy-2-methylpropan-2-ylamino)pyrimidine-5-carboxamide] | < 200
C[C@@H]1CC[C@@H](Nc2nc(NC3CC(F)(F)C3)ncc2C(N)=O)C[C@H]1O [Example 444, 2-(3,3-difluorocyclobutylamino)-4-((1R,3R,4R)-3-hydroxy-4-methylcyclohexylamino)pyrimidine-5-carboxamide] | < 200
CC(C)(C)Nc1nc(N[C@H]2CC[C@H](OC(F)F)CC2)ncc1C(N)=O [Example 319, 4-(tert-butylamino)-2-((1r,4r)-4-(difluoromethoxy)cyclohexylamino)pyrimidine-5-carboxamide] | < 200
C[C@@H](Nc1nc(N[C@H]2CC[C@H](OC(F)F)CC2)ncc1C(N)=O)C1CC1 [Example 426, 4-((R)-1-cyclopropylethylamino)-2-((1r,4R)-4-(difluoromethoxy)cyclohexylamino)pyrimidine-5-carboxamide] | < 200
C[C@@H](Nc1nc(NC23CCC(O)(CC2)CC3)ncc1C(N)=O)C1CC1 [Example 408, (R)-4-(1-cyclopropylethylamino)-2-(4-hydroxybicyclo[2.2.2]octan-1-ylamino)pyrimidine-5-carboxamide] | < 200

Same assay, conditions: tested in one or more of the JNK1 biochemical assays; read-out: Act. Level (JNK1 biochemical assay IC50 activity level)

SMILES | IC50 [nM]
CCO[C@H]1CC[C@H](Nc2ncc(C(N)=O)c(NC3CCC[C@H]3O)n2)CC1 (stereo partly drawn) [Example A-66, 2-((1r,4R)-4-ethoxycyclohexylamino)-4-((1R,2R)-2-hydroxycyclopentylamino)pyrimidine-5-carboxamide] | < 200
CN(C)C(=O)[C@H]1CC[C@@H](Nc2nc(NC3CCC3)ncc2C(N)=O)CC1 [Example A-134, 2-(cyclobutylamino)-4-((1s,4s)-4-(dimethylcarbamoyl)cyclohexylamino)pyrimidine-5-carboxamide] | 1000 to 10000
NC(=O)c1cnc(NC2CCOCC2)nc1N[C@H]1CC[C@@H](C(=O)N2CCCC2)CC1 [Example A-112, 4-((1s,4s)-4-(pyrrolidine-1-carbonyl)cyclohexylamino)-2-(tetrahydro-2H-pyran-4-ylamino)pyrimidine-5-carboxamide] | 800 to 1000
CCO[C@H]1CC[C@H](Nc2ncc(C(N)=O)c(N[C@H]3CCCC[C@@H]3O)n2)CC1 [Example A-77, 2-((1r,4S)-4-ethoxycyclohexylamino)-4-((1S,2S)-2-hydroxycyclohexylamino)pyrimidine-5-carboxamide] | < 200
CO[C@H]1CC[C@H](Nc2ncc(C(N)=O)c(N[C@@H]3CCCNC3)n2)CC1 [Example A-47, 2-((1r,4R)-4-methoxycyclohexylamino)-4-((R)-piperidin-3-ylamino)pyrimidine-5-carboxamide] | < 200
CCO[C@H]1CC[C@H](Nc2ncc(C(N)=O)c(N[C@@H]3CCCOC3)n2)CC1 [Example A-72, 2-((1r,4R)-4-ethoxycyclohexylamino)-4-((R)-tetrahydro-2H-pyran-3-ylamino)pyrimidine-5-carboxamide] | < 200
COC[C@H]1CC[C@H](Nc2ncc(C(N)=O)c(N[C@H]3CCN(C(C)=O)C3)n2)CC1 [Example A-85, 4-((S)-1-acetylpyrrolidin-3-ylamino)-2-((1r,4S)-4-(methoxymethyl)cyclohexylamino)pyrimidine-5-carboxamide] | 200 to 800
CO[C@H]1CC[C@@H](Nc2nc(N[C@@H]3CC[C@@H](CO)C3)ncc2C(N)=O)CC1 [Example A-97, 2-((1R,3R)-3-(hydroxymethyl)cyclopentylamino)-4-((1s,4S)-4-methoxycyclohexylamino)pyrimidine-5-carboxamide] | < 200
CO[C@H]1CC[C@H](Nc2ncc(C(N)=O)c(N[C@H]3CCCC[C@](C)(O)C3)n2)CC1 [Example A-184, 4-((1S,3S)-3-hydroxy-3-methylcycloheptylamino)-2-((1r,4S)-4-methoxycyclohexylamino)pyrimidine-5-carboxamide] | 200 to 800
